Results on two compounds are retold here after patent US7723063B2, “Methods for measuring levels of bioactive human hepcidin” (Intrinsic Lifesciences, priority 2004, dated 2010).

The test system of one data set is spores of A. niger. As to the kind of experiment: Germination and fungicidal assay. The format is cell-based. Conditions: 48 hr exposure, re-culture in fresh medium.
Data set [1] can be described thus: Serum hepcidin after IP injection of synthetic bass hepcidin, competitive ELISA. The format is in vivo. Particulars: HSB. On the procedure: Competition ELISA Protocol. A high-binding 96-well microplate (Corning, Inc., Cat. No. 3590) was coated with 100 μl of a 1:5,000 dilution of affinity-purified rabbit anti-HSB hepcidin antibody (0.68 mg/ml) in carbonate-bicarbonate coating buffer pH 9.6 (Sigma-Aldrich Corp., Cat. No. C-3041). One well contained 100 μl carbonate-bicarbonate coating buffer and no antibody. The plate was covered and placed at 4°C. Following a suitable period of incubation at 4° C., the plate was washed with three, 300 μl volumes of PBS-T (PBS containing 0.05% TWEEN-20™). Next, the plate was blocked with 250 μl of a 2% (w/v) dry milk solution in PBS, covered, and incubated for one hour at RT, shaking at 150 rpm. Samples and standard curves were prepared in a separate 96-well plate. Serum, plasma, and urine samples were diluted with PBS diluted to be within the working range of the standard curve. An aliquot of biotinylated AEEAc-derivatized hepcidin (0.21 mg/ml diluted 1:2000) was added to each well to give a final biotinylated hepcidin concentration of 94.5 ng/ml. From each well of the sample/standard curve dilution plate, 100 μl was transferred to the antibody coated and blocked plate. The plate was covered and incubated at RT, shaking at 150 rpm, for 1 hour to allow competitive binding to occur. […] Absorbance at 450 nm was determined using a THERMOMAX™ microplate reader with SOFTMAX PRO™ software (Molecular Devices). Data were analyzed using a spreadsheet program. […]
The data from these studies is separated by double lines. […] The second data set is from a field study Production Tank 32, where HSB without apparent clinical disease ‘Clinically Healthy’ and “Infected/Moribund” HSB were sampled and their serum hepcidin levels determined (Rows 4-5). […] The fourth experiment is a clinical where the indicated quantities of synthetic, bioactive, bass hepcidin was injected IP and measured in their serum at the indicated timepoints (Rows 8-11). […]
For orientation: ELISA stands for enzyme-linked immunosorbent assay.

Data set [2] in a line: Direct binding to ferric iron by NMR. An excerpt: Instead, hepcidin has shown to have the capability of exerting its effects on the innate immune response of teleosts through a combination of activities. The bass model employed in these studies provides a powerful approach to further elucidate hepcidin function(s), including it potential role in hypoferremia in teleosts.

Data set [3] is described as follows: Aggregation of bioactive hepcidin in phosphate buffered saline. Conditions: pH 7.4. The format is physicochemical. An excerpt: Development of bass hepcidin enzyme/ligand conjugates for ELISA. We took advantage of the only available (N-terminal) primary amine group present in refolded bass hepcidin for conjugation to KLH using EDC (1-Ethyl-3-[3-Dimethylamino-propyl] carbodiimide HCl) and DSS (Disuccinimidyl suberate) chemistries. These approaches were very difficult to develop and apply to production of hepcidin conjugates due to hepcidin's inherent solubility issues in higher pH coupling buffers. […] We have encountered significant issues when trying to solubilize hepcidin at the higher concentrations (1-3 mg ml^−1) in standard coupling buffers desirable for production of high activity, soluble hepcidin-HRP conjugates for ELISA.

The subject of the next data set is S. iniae. The method, then:
(§1) Antimicrobial Synergism Studies. Synergism between synthetic bass hepcidin and moronecidin was tested in checkerboard liquid growth inhibition assays. In brief, two-fold serial dilutions of each peptide were made in water, and 10 μl of the solution added to the bottom of the wells of a 96-well plate. Ninety μl of exponential phase bacterial cultures (OD600˜0.2) were freshly diluted in culture media to ˜2×10^5 CFU ml^−1 and added to peptide solutions. Controls consisted of wells with the appropriate volume and concentration of each peptide alone, or of water. Bacterial viability was assayed at 2 h by plating aliquots of the bacterial suspension for CFU enumeration. The bacterial suspensions were further incubated overnight at 37° C. and bacterial growth was monitored by optical density at 600 nm for determination of MIC. Synergistic activity was quantify as fractional inhibition concentration (FIC) index=([A]/MICA)+([B]/MICB), where MICA and MICB are the MICs of the peptides alone and [A] and [B] are the MICs of A and B when used together.
(§2) To test for synergism between the two antimicrobial peptides in vitro, we conducted liquid growth inhibition/killing experiments with a Gram-positive (S. iniae) and a Gram-negative bacterium (Y enterocolitica) using varying concentrations of the two synthetic peptides. The bacteria were cultured in the presence of synthetic bass hepcidin and moronecidin and plated after 2 h incubation at 37° C. for determination of CFU (FIG. 14).

The test system of another data set is Yersinia enterocolitica. In words: Microbicidal kinetics. The format is cell-based. The method, then: Microbicidal Kinetics. An experiment was conducted to examine the microbicidal kinetics of bass hepcidin and to compare its killing activity to another bass antimicrobial peptide, moronecidin. Moronecidin is a 22 amino acid, linear, amphipathic α-helical peptide which was originally co-purified from the gill of HSB with hepcidin. […] We compared the killing kinetics of hepcidin and moronecidin against Y enterocolitica at 30 min intervals over a 3 h time period using 2× their MIC concentrations for this organism (44 and 10 μM; FIG. 12). The bactericidal activities of the peptides were assessed by plating cultures and counting CFUs after overnight incubation at 37° C.

The next data set deals with HSB erythrocytes. As to the kind of experiment: Hemolytic activity. The format is cell-based, striped bass. The method, then: Hemolytic activity. Freshly packed striped bass erythrocytes (3 ml) isolated from young fingerlings (˜30 g) and adult fish (˜300 g) were washed with phosphate-buffered saline (PBS; pH 7.4) until the supernatant was colorless and resuspended in PBS (30 ml) supplemented with glucose (0.2%, w/v). Synthetic bass hepcidin (10 μl of 880-55 μM) was added to 90 μl of a 1% suspension of washed erythrocytes in microcentrifuge tubes. Triplicate samples were incubated for 30, 90, 180, and 240 min at 37° C. then centrifuged for 10 min at 3500 rpm. Supernatant from the erythrocyte suspension (70 μl) was placed in a microtiter plate and optical density at 405 nm determined. The percentage of hemolysis in hepcidin-treated erythrocytes was expressed relative to hemolysis obtained with a control erythrocyte suspension treated with 0.1% sodium dodecyl sulphate (SDS, 100% hemolysis).
Hemolytic Activity. The hemolytic activity of bass hepcidin was tested with erythrocytes from HSB. […] Greater than 98% of the bass erythrocytes exposed to 44 μM hepcidin for 3 h at 37° C. remained intact. This exposure corresponds to a time point when 96% of Y. enterocolitica exposed to 44 μM hepcidin have been killed (see FIG. 6, Panel A). After 4 h incubation with 44 μM hepcidin, more than 97% of the erythrocytes remained intact. No hemolysis was observed after 4 h at hepcidin concentrations of 11 μM and lower.

The subject of a further data set is Y. enterocolitica. On the procedure:
as §1, §2

As a reminder, the MIC is the smallest concentration in the dilution series that meets the test's criterion for growth inhibition.

Values after ≈ are worked out from the molar mass of the structure shown. Ends that are not written are not given here. Peptide text beside a SMILES is read from it.

Protocol for spores of A. niger: Germination and Fungicidal Assay. Spores of A. niger were harvested and resuspended in sterile water containing 0.05% TWEEN-80™, and the concentration adjusted to approximately 10^8 spores per ml. Spores were diluted in half-strength PDB containing 16 μM chloramphenicol to a final concentration of 10^5 spores per ml. Ninety μl of the suspension was placed in sterile flat-bottomed polystyrene 96-well plates with 10 μl of serial dilutions of peptide (440 μM, 220 μM, 110 μM, 55 μM), in water. Germination of spores was allowed to proceed for 2 days at 30° C. in the dark, after which hyphae density was measured by absorbance at 600 nm. After 2 days of incubation, the contents of wells showing no germination were centrifuged for 3 min at 5000 rpm, resuspended in 50 μl of fresh PDB media, and triplicate aliquots spotted onto PDB agar plates. Plates were placed at 30° C. for 3 days to monitor germination of hyphae. The absence of germination indicated fungicidal activity.
Fungicidal Activity. […] After 48 hr exposure to the respective peptides, spores were removed and cultured in fresh medium and examined 48 h later for growth.

Turning to `CSCC[C@@H]1NC(=O)[C@H](CC(N)=O)NC(=O)[C@@H]2CCCN2C(=O)[C@@H]2CSSC[C@@H]3NC(=O)[C@H](C(C)C)NC(=O)CNC(=O)[C@H](CSSC[C@@H]4NC(=O)[C@H](CSSC[C@H](NC(=O)[C@H](CC(N)=O)NC4=O)C(=O)N2)NC(=O)[C@H](Cc2ccccc2)NC(=O)[C@H](CCCNC(=N)N)NC(=O)[C@@H](NC(=O)CN)CSSC[C@@H](C(=O)N[C@@H](CCCNC(=N)N)C(=O)N[C@@H](Cc2ccccc2)C(=O)O)NC3=O)NC(=O)CNC(=O)[C@H](CO)NC1=O` [bass hepcidin] (HELM PEPTIDE1{G.C.R.F.C.C.N.C.C.P.N.M.S.G.C.G.V.C.C.R.F}$PEPTIDE1,PEPTIDE1,2:R3-19:R3|PEPTIDE1,PEPTIDE1,5:R3-8:R3|PEPTIDE1,PEPTIDE1,6:R3-15:R3|PEPTIDE1,PEPTIDE1,9:R3-18:R3$$$V2.0; N-terminus and C-terminus assumed), in the data set on spores of A. niger, the Fungicidal concentration stood at 44 µM. The level at 3 h came to 39.3 µg/mL in data set [1] (50 ug, 50 μg IP) and 204 µg/mL in [1] (300 ug, 300 μg IP). Moreover, in data set [1] (2 × 300 μg IP (0 and 3 h), sampled 6 h), the level at 6 h was 230 µg/mL. The “Direct binding to ferric iron” value in data set [2] is given as “no evidence”. For the same compound, the “Concentration at which it readily aggregates” value in data set [3] came out at 50 ng/mL. Also, the “Antimicrobial activity against S. iniae” value in the data set with S. iniae (2 h incubation, concentrations as high as 88 μM) is given as “no detectable antimicrobial activity”. In the data set with Yersinia enterocolitica (44 μM), the “Time required for 90% reduction of CFU from the original inoculum” value is “Two and half hours”. In the data set with Yersinia enterocolitica (22 and 44 μM), the “State of cultures at 30 min” value is “actually growing”. In the data set with Yersinia enterocolitica (Y. enterocolitica), this compound yielded a minimal inhibitory concentration (MIC) of 22 µM (≈ 49.6 µg/mL). In addition, the Hemolytic activity is recorded as 0% of controls with HSB erythrocytes (5.5 μM, 30 min., 37° C.); 0% of controls in the data set with HSB erythrocytes (5.5 μM, 90 min.); 0% of controls with HSB erythrocytes (5.5 μM, 180 min.); 0% of controls with HSB erythrocytes (11 μM, 30 min.); 0% of controls in the data set on HSB erythrocytes (11 μM, 90 min.); 0% of controls in the data set on HSB erythrocytes (11 μM, 180 min.). Moreover, the Hemolytic activity in the data set on HSB erythrocytes (22 μM, 30 min.) is 0% of controls; in the data set on HSB erythrocytes (22 μM, 90 min.), 0% of controls; with HSB erythrocytes (22 μM, 180 min.) it was 0.4 ± 0.15% of controls; with HSB erythrocytes (22 μM, 240 min.) it was 0.4 ± 0.4% of controls; in the data set with HSB erythrocytes (44 μM, 30 min.), 0% of controls; with HSB erythrocytes (44 μM, 90 min.) it was 0% of controls. In addition, the Hemolytic activity in the data set on HSB erythrocytes (44 μM, 180 min.) was 1.4 ± 0.3% of controls; with HSB erythrocytes (44 μM, 240 min.), 2.5 ± 1.2% of controls. Moreover, the Erythrocytes remaining intact entry in the data set on HSB erythrocytes (44 μM, 3 h, 37° C.) was “Greater than 98%”; in the data set on HSB erythrocytes (44 μM, 4 h), “more than 97%”. In addition, the Hemolysis entry in the data set on HSB erythrocytes (4 h, 11 μM and lower) is recorded as “No hemolysis”.
In the data set on spores of A. niger, “FFHHIFRGIVHVGKTIHKLVTG-NH2 (C-terminus assumed) [moronecidin, reference compound]” gave a Fungicidal concentration of 10 µM. Further, the MIC worked out at 2.5 µM in the data set on S. iniae, 5 µM in the data set on Y. enterocolitica and 5 µM against E. coli. The “Decrease in CFU” value in the data set with Yersinia enterocolitica (10 μM (2× MIC), after 30 min) came out at 90%.
